Eleven compounds from ChEMBL document CHEMBL4825768 (ACS Med Chem Lett, 2021) can be followed below.

Experiment [1] deals with T1, GTPase KRas (Homo sapiens, UniProt P01116, G12C). Description: Inhibition of GDP-bound KRAS G12C mutant (1 to 169 residues) (unknown origin) assessed as inhibition of SOS-mediated nucleotide exchange pretreated with KRAS for 20 hrs followed by incubation with SOS (564 to 1049 residues) and GTP for 30 mins and later incubated with GST-tagged cRAF (1 to 149 residues) for 10 mins by AlphaLISA assay. The experiment is classed as single protein. In general terms: In Alpha technology, singlet oxygen from a donor bead excites a nearby acceptor bead.

The target of experiment [2] is T1, GTPase KRas. Description: Inhibition of GDP-bound KRAS G12C mutant (1 to 169 residues) (unknown origin) assessed as inhibition of SOS-mediated nucleotide exchange pretreated with KRAS for 5 mins followed by incubation with SOS (564 to 1049 residues) and GTP for 30 mins and later incubated with GST-tagged cRAF (1 to 149 residues) for 10 mins by AlphaLISA assay. The experiment is classed as single protein.

Experiment [3] concerns the target T1, GTPase KRas. Description: Inhibition of KRAS G12C mutant in human MIA PaCa-2 cells assessed as reduction in phosphorylated ERK1/2 level incubated for 2 hrs by MSD assay. The experiment is classed as cell-based.
For experiment [4], the system named is GTPase KRas (Homo sapiens), P01116 [G12D]. Description: Binding affinity to GDP-bound KRAS G12D mutant (unknown origin) assessed as bound fraction at 100 uM incubated for 20 hrs by RF-MS analysis relative to control.

What is called IC50 is the midpoint of a concentration-inhibition curve. Consider `Cc1ccnc(C(C)C)c1-n1c(=O)nc(N2CCN(C(=O)C3OC3C)C[C@@H]2C)c2cc(Cl)c(-c3ccccc3F)nc21` (some centres undefined), for which the values for the IC50 on GTPase KRas [1] and on GTPase KRas [2] were 96 nM and 17800 nM, respectively.
Turning to `Cc1ccnc(C(C)C)c1-n1c(=O)nc(N2CCN(C(=O)C=O)C[C@@H]2C)c2cc(Cl)c(-c3ccccc3F)nc21`, the results for the IC50 at GTPase KRas [3], on GTPase KRas [1] and on GTPase KRas [2] were 711 nM, 39 nM and 610 nM, respectively.
Regarding `Cc1ccnc(C(C)C)c1-n1c(=O)nc(N2CC(NC(=O)C3CO3)C2)c2cc(Cl)c(-c3ccccc3F)nc21` (centres undefined), the IC50 on GTPase KRas [1] came out at 18 nM; on GTPase KRas [2] it was 4410 nM.
For the compound `CCOC(=O)[C@@H]1O[C@H]1C(=O)N1CCN(c2nc(=O)n(-c3c(C)ccnc3C(C)C)c3nc(-c4ccccc4F)c(Cl)cc23)[C@@H](C)C1`, the results for the IC50 at GTPase KRas [3], on GTPase KRas [1] and on GTPase KRas [2] were 96 nM, 5 nM and 216 nM, respectively. For the same compound, the Activity in experiment [4] came to 3.4%.
Consider `Cc1ccnc(C(C)C)c1-n1c(=O)nc(N2CCN(C(=O)[C@@H]3O[C@H]3CN3CCCCC3)C[C@@H]2C)c2cc(Cl)c(-c3ccccc3F)nc21`, for which the IC50 on GTPase KRas [1] came out at 5 nM; on GTPase KRas [2], 1120 nM.
As for `Cc1ccnc(C(C)C)c1-n1c(=O)nc(N(C)C2CN(C(=O)C3CO3)C2)c2cc(Cl)c(-c3ccccc3F)nc21` (centres undefined), the concentration for half-maximal inhibition (IC50) was found to be 227 nM on GTPase KRas [1] and 13800 nM on GTPase KRas [2].
For `Cc1ccnc(C(C)C)c1-n1c(=O)nc(N2C[C@@H](C)N(C(=O)[C@H]3CO3)C[C@@H]2C)c2cc(Cl)c(-c3c(N)cccc3F)nc21`, the IC50 on GTPase KRas [1] stood at 15 nM; at GTPase KRas [2] it was 560 nM. In addition, in experiment [4], the Activity was determined as 15.8%.
On to `Cc1ccnc(C(C)C)c1-n1c(=O)nc(N2C[C@@H](C)N(C(=O)[C@H]3CO3)C[C@@H]2C)c2cc(Cl)c(-c3c(O)cccc3F)nc21`, for which the IC50 on GTPase KRas [1] was determined as 24 nM; at GTPase KRas [2], 653 nM. The Activity in experiment [4] was 8.1%.
For `Cc1ccnc(C(C)C)c1-n1c(=O)nc(N2CCN(C(=O)[C@@H]3O[C@H]3CO)C[C@@H]2C)c2cc(Cl)c(-c3ccccc3F)nc21`, the IC50 at GTPase KRas [1] was 64 nM; on GTPase KRas [2] it was 6260 nM.
As for `COC(=O)/C=C/C(=O)N1CCN(c2nc(=O)n(-c3c(C)ccnc3C(C)C)c3nc(-c4ccccc4F)c(Cl)cc23)[C@@H](C)C1`, the values for the IC50 at GTPase KRas [3], at GTPase KRas [1] and at GTPase KRas [2] were 61 nM, 26 nM and 95 nM, respectively.
Consider `Cc1ccnc(C(C)C)c1-n1c(=O)nc(N2CCN(C(=O)[C@H]3CO3)C[C@@H]2C)c2cc(Cl)c(-c3ccccc3F)nc21`, for which the results for the IC50 at GTPase KRas [1] and on GTPase KRas [2] were 27 nM and 3780 nM, respectively. Also, in experiment [4], the Activity was 3.4%.
